Data as given in patent publication US20200231638A1, “STABILIZED ANTI-MICROBIAL PEPTIDES” (priority 2015, published 2020).
Bridge positions count the residues as written; N and C are the ends. Square brackets hold non-standard residues; d marks the D form. Peptide text beside a SMILES is read from it. R8 = C=CCCCCCC[C@@](C)(N)C(=O)O; S5 = C=CCCC[C@](C)(N)C(=O)O; Nle = CCCC[C@H](N)C(=O)O

Tests used:
[1] = tested on: P. aeruginosa; assay type: cell-based, Pseudomonas aeruginosa
Method in brief: (§1)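 Broth microdilution; anion-exchange-refined MHB; overnight culture at 37° C, diluted and regrown; inoculum 5×10^5 CFU/ml final; peptides serially diluted in water; 20-24 h, 37° C; MIC = lowest concentration without visible growth.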

[2] = tested on: S. aureus; assay type: cell-based, Staphylococcus aureus
Method in brief: as §1

[3] = tested on: B. cereus; assay type: cell-based, Bacillus cereus
Method in brief: as §1

[4] = tested on: E. coli; assay type: cell-based, Escherichia coli
Method in brief: as §1

[5] = tested on: human red blood cells; assay type: cell-based; conditions: red cells of human, 1 h, 25
Method in brief: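 Washed human RBCs as 1% (v/v) suspension in phosphate-buffered saline incubated 1 h at 37° C with serially diluted peptides. Hemoglobin release in supernatant measured spectrophotometrically (570 nm), % hemolysis relative to untreated and 1% Triton-X100 controls; MHC defined as concentration giving less than 1% release.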

| Compound | MIC P. aeruginosa [1] [µg/mL] | MIC S. aureus [2] [µg/mL] | MIC B. cereus [3] [µg/mL] | MIC E. coli [4] [µg/mL] | % Hemolysis at 25 μg/ml [5] [%] |
| --- | --- | --- | --- | --- | --- |
| CCCC[C@H](NC(=O)[C@]1(C)CCCC=CCCC[C@](C)(NC(=O)[C@H](C)NC(=O)[C@H](CCCCN)NC(=O)CNC(=O)[C@H](Cc2ccccc2)NC(=O)[C@H](CCCCN)NC(=O)[C@H](CCCCN)NC(=O)[C@H](C)NC(=O)[C@H](CO)NC(=O)[C@H](Cc2c[nH]cn2)NC(=O)[C@H](CCCCN)NC(=O)[C@H](Cc2ccccc2)NC(=O)[C@H](CCCCN)NC(=O)CNC(=O)[C@@H](NC(=O)CN)[C@@H](C)CC)C(=O)N[C@@H](C(C)C)C(=O)NCC(=O)N[C@@H](CCC(=O)O)C(=O)N1)C(=O)N[C@@H](CC(N)=O)C(=O)N[C@@H](CO)C(N)=O [Mag(i + 4)15(L6K), GIGKFKHSAKKFGKAXVGEXBNS] (H-GIGKFKHSAKKFGKA[S5]VGE[S5][Nle]NS-NH2; staple 16-20) | 12.5 | >50 | >50 | 3.1 | 1.9 |
| CCCC[C@H](NC(=O)[C@]1(C)CCCC=CCCC[C@](C)(NC(=O)[C@H](C)NC(=O)[C@H](CCCCN)NC(=O)CNC(=O)[C@H](Cc2ccccc2)NC(=O)[C@H](CCCCN)NC(=O)[C@H](CCCCN)NC(=O)[C@H](C)NC(=O)[C@H](CO)NC(=O)[C@H](Cc2c[nH]cn2)NC(=O)[C@H](CC(C)C)NC(=O)[C@H](Cc2ccccc2)NC(=O)[C@H](CCCCN)NC(=O)CNC(=O)[C@@H](NC(=O)CN)[C@@H](C)CC)C(=O)N[C@@H](C(C)C)C(=O)NCC(=O)N[C@@H](CCCCN)C(=O)N1)C(=O)N[C@@H](CC(N)=O)C(=O)N[C@@H](CO)C(N)=O [Mag(i + 4)15(E19K), GIGKFLHSAKKFGKAXVGKXBNS] (H-GIGKFLHSAKKFGKA[S5]VGK[S5][Nle]NS-NH2; staple 16-20) | 3.1 | 12.5 | 6.2 | 1.6 | 7.1 |
| CCCC[C@H](NC(=O)[C@@H](NC(=O)[C@H](CCC(=O)O)NC(=O)CNC(=O)[C@@H](NC(=O)[C@H](Cc1ccccc1)NC(=O)[C@H](C)NC(=O)[C@H](CCCCN)NC(=O)[C@]1(C)CCCC=CCCCCCC[C@@](C)(NC(=O)[C@H](Cc2ccccc2)NC(=O)[C@H](CCCCN)NC(=O)CNC(=O)[C@@H](NC(=O)CN)[C@@H](C)CC)C(=O)N[C@@H](Cc2c[nH]cn2)C(=O)N[C@@H](CO)C(=O)N[C@@H](C)C(=O)N[C@@H](CCCCN)C(=O)N[C@@H](CCCCN)C(=O)N[C@@H](Cc2ccccc2)C(=O)N1)C(C)C)[C@@H](C)CC)C(=O)N[C@@H](CC(N)=O)C(=O)N[C@@H](CO)C(N)=O [Mag(i + 7)5] (H-GIGKF[R8]HSAKKF[S5]KAFVGEI[Nle]NS-NH2; staple 6-13 (inferred); N-terminus and C-terminus assumed) | 3.1 | 6.2 | 3.1 | 3.1 | 87.0 |
| CC(C)C[C@H](NC(=O)[C@H](Cc1ccc(O)cc1)NC(=O)[C@H](Cc1c[nH]cn1)NC(=O)[C@@H](NC(=O)[C@H](CC(C)C)NC(=O)[C@]1(C)CCCC=CCCC[C@](C)(NC(=O)[C@H](Cc2c[nH]cn2)NC(=O)[C@H](CCCCN)NC(=O)CNC(=O)[C@@H](NC(=O)[C@H](Cc2c[nH]cn2)NC(=O)[C@H](C)NC(=O)[C@H](C)NC(=O)[C@H](CCCCN)NC(=O)[C@H](CCCCN)NC(=O)[C@]2(C)CCCC=CCCC[C@](C)(NC(=O)CN)C(=O)NCC(=O)N[C@@H](CO)C(=O)N[C@@H](Cc3ccccc3)C(=O)N2)C(C)C)C(=O)NCC(=O)N[C@@H](CCCCN)C(=O)N[C@@H](C)C(=O)N1)[C@@H](C)O)C(N)=O [Pleu(i + 4)1, 15] (H-G[S5]GSF[S5]KKAAHVGKH[S5]GKA[S5]LTHYL-NH2; staple 2-6, 16-20; N-terminus assumed) | 1.6 | 1.6 | 3.1 | 1.6 | 88.2 |
| CCCC[C@H](NC(=O)[C@]1(C)CCCC=CCCC[C@](C)(NC(=O)[C@H](CCC(=O)O)NC(=O)[C@H](CCCCN)NC(=O)CNC(=O)[C@H](Cc2ccccc2)NC(=O)[C@H](CCCCN)NC(=O)[C@H](CCCCN)NC(=O)[C@H](C)NC(=O)[C@H](CO)NC(=O)[C@H](Cc2c[nH]cn2)NC(=O)[C@H](CC(C)C)NC(=O)[C@H](Cc2ccccc2)NC(=O)[C@H](CCCCN)NC(=O)CNC(=O)[C@@H](NC(=O)CN)[C@@H](C)CC)C(=O)N[C@@H](C(C)C)C(=O)NCC(=O)N[C@@H](CCC(=O)O)C(=O)N1)C(=O)N[C@@H](CC(N)=O)C(=O)N[C@@H](CO)C(N)=O [Mag(i + 4)15(A15E), GIGKFLHSAKKFGKEXVGEXBNS] (H-GIGKFLHSAKKFGKE[S5]VGE[S5][Nle]NS-NH2; staple 16-20) | 25 | 50 | 25 | 3.1 | 3.8 |
| CCCC[C@H](NC(=O)[C@]1(C)CCCC=CCCC[C@](C)(NC(=O)[C@H](CCCCN)NC(=O)[C@H](CCCCN)NC(=O)CNC(=O)[C@H](Cc2ccccc2)NC(=O)[C@H](CCCCN)NC(=O)[C@H](CCCCN)NC(=O)[C@H](C)NC(=O)[C@H](CO)NC(=O)[C@H](Cc2c[nH]cn2)NC(=O)[C@H](CC(C)C)NC(=O)[C@H](Cc2ccccc2)NC(=O)[C@H](CCCCN)NC(=O)CNC(=O)[C@@H](NC(=O)CN)[C@@H](C)CC)C(=O)N[C@@H](C(C)C)C(=O)NCC(=O)N[C@@H](CCC(=O)O)C(=O)N1)C(=O)N[C@@H](CC(N)=O)C(=O)N[C@@H](CO)C(N)=O [Mag(i + 4)15(A15K), GIGKFLHSAKKFGKKXVGEXBNS] (H-GIGKFLHSAKKFGKK[S5]VGE[S5][Nle]NS-NH2; staple 16-20) | 3.1 | 25 | 6.2 | 3.1 | 4.1 |

Continued, in another order:

| MIC P. aeruginosa [1] [µg/mL] | MIC S. aureus [2] [µg/mL] | MIC B. cereus [3] [µg/mL] | MIC E. coli [4] [µg/mL] | Compound | % Hemolysis at 25 μg/ml [5] [%] |
| --- | --- | --- | --- | --- | --- |
| 12.5 | 12.5 | 12.5 | 3.1 | CCCC[C@H](NC(=O)[C@@H](NC(=O)[C@H](CCC(=O)O)NC(=O)CNC(=O)[C@@H](NC(=O)[C@H](Cc1ccccc1)NC(=O)[C@H](C)NC(=O)[C@H](CCCCN)NC(=O)CNC(=O)[C@H](Cc1ccccc1)NC(=O)[C@H](CCCCN)NC(=O)[C@H](CCCCN)NC(=O)[C@H](C)NC(=O)[C@H](CO)NC(=O)[C@]1(C)CCCC=CCCC[C@](C)(NC(=O)[C@@H](NC(=O)CN)[C@@H](C)CC)C(=O)N[C@@H](CCCCN)C(=O)N[C@@H](Cc2ccccc2)C(=O)N[C@@H](CC(C)C)C(=O)N1)C(C)C)[C@@H](C)CC)C(=O)N[C@@H](CC(N)=O)C(=O)N[C@@H](CO)C(N)=O [Mag(i + 4)2] (H-GI[S5]KFL[S5]SAKKFGKAFVGEI[Nle]NS-NH2; staple 3-7) | 19.6 |
| 12.5 | 12.5 | 6.2 | 3.1 | CCCC[C@H](NC(=O)[C@@H](NC(=O)[C@H](CCC(=O)O)NC(=O)CNC(=O)[C@@H](NC(=O)[C@H](Cc1ccccc1)NC(=O)[C@H](C)NC(=O)[C@H](CCCCN)NC(=O)CNC(=O)[C@H](Cc1ccccc1)NC(=O)[C@H](CCCCN)NC(=O)[C@]1(C)CCCC=CCCCCCC[C@@](C)(NC(=O)[C@@H](NC(=O)CN)[C@@H](C)CC)C(=O)N[C@@H](CCCCN)C(=O)N[C@@H](Cc2ccccc2)C(=O)N[C@@H](CC(C)C)C(=O)N[C@@H](Cc2c[nH]cn2)C(=O)N[C@@H](CO)C(=O)N[C@@H](C)C(=O)N1)C(C)C)[C@@H](C)CC)C(=O)N[C@@H](CC(N)=O)C(=O)N[C@@H](CO)C(N)=O [Mag(i + 7)2] (H-GI[R8]KFLHSA[S5]KFGKAFVGEI[Nle]NS-NH2; staple 3-10 (inferred); N-terminus and C-terminus assumed) | 69.3 |
| 6.2 | 12.5 | 6.2 | 3.1 | CCCC[C@H](NC(=O)[C@@H](NC(=O)[C@H](CCC(=O)O)NC(=O)CNC(=O)[C@@H](NC(=O)[C@]1(C)CCCC=CCCC[C@](C)(NC(=O)[C@H](CCCCN)NC(=O)[C@H](CCCCN)NC(=O)[C@H](C)NC(=O)[C@H](CO)NC(=O)[C@H](Cc2c[nH]cn2)NC(=O)[C@H](CC(C)C)NC(=O)[C@H](Cc2ccccc2)NC(=O)[C@H](CCCCN)NC(=O)CNC(=O)[C@@H](NC(=O)CN)[C@@H](C)CC)C(=O)NCC(=O)N[C@@H](CCCCN)C(=O)N[C@@H](C)C(=O)N1)C(C)C)[C@@H](C)CC)C(=O)N[C@@H](CC(N)=O)C(=O)N[C@@H](CO)C(N)=O [Mag(i + 4)11] (H-GIGKFLHSAKK[S5]GKA[S5]VGEI[Nle]NS-NH2; staple 12-16) | 17.5 |
| >50 | >50 | >50 | 50 | CCCC[C@H](NC(=O)[C@]1(C)CCCC=CCCC[C@](C)(NC(=O)[C@H](C)NC(=O)[C@H](CCCCN)NC(=O)CNC(=O)[C@H](Cc2ccccc2)NC(=O)[C@H](CCCCN)NC(=O)[C@H](CCCCN)NC(=O)[C@H](C)NC(=O)[C@H](CO)NC(=O)[C@H](Cc2c[nH]cn2)NC(=O)[C@H](CC(C)C)NC(=O)[C@H](Cc2ccccc2)NC(=O)[C@H](CCCCN)NC(=O)CNC(=O)[C@@H](NC(=O)CN)[C@@H](C)CC)C(=O)N[C@@H](CCC(=O)O)C(=O)NCC(=O)N[C@@H](CCC(=O)O)C(=O)N1)C(=O)N[C@@H](CC(N)=O)C(=O)N[C@@H](CO)C(N)=O [Mag(i + 4)15(V17E), GIGKFLHSAKKFGKAXEGEXBNS] (H-GIGKFLHSAKKFGKA[S5]EGE[S5][Nle]NS-NH2; staple 16-20) | 0.5 |
